{"source": "patent US10835461B2", "about": "“Bio-active material composite, preparing method thereof and cosmetic composition containing the same” (priority 2015, dated 2020)", "assay": "Stability of pure vitamin C and YHC-Vc in aqueous solution (color, pH, vitamin C content) at 50° C. in airtight container for four weeks", "format": "physicochemical"}
{"smiles": "O=C1O[C@H]([C@@H](O)CO)C(O)=C1O", "note": "[vitamin C, ascorbic acid]", "values": [{"measurement": "change of color", "setting": "50° C., airtight glass container, four weeks, 3.0 wt % vitamin C solution or 10.0 wt % composite dispersion", "value": "abrupt change of color in the order from clear (colorless) to yellow, orange, and then red"}, {"measurement": "pH", "setting": "In 4 weeks, 50° C., airtight container", "value": 2.52}, {"measurement": "pH condition maintained", "setting": "at 50° C. for 4 weeks", "value": "~2"}, {"measurement": "remaining amount of vitamin C", "setting": "in four weeks at 50° C. in airtight container", "value": "about 51%"}]}
